Data published in US9914732B2, “Diazabicyclo[4.3.1]decane derivatives for treatment of psychiatric disorders” (Max-Planck-Gesellschaft zur Forderung der Wissenschaften …, priority 2014, dated 2018).

Columns and labels:
FKBP51 = molecular target: T1, FKBP51 (Homo sapiens, UniProt Q13451); experiment: Fluorescence polarization (FP) assay, binding to the FK506-binding domain of FKBP51; conditions: FK506-binding domain of FKBP51 (FKBP51FK1), competition with fluorescent ligand 2b
T1 sequence (Q13451 42-130 limits assumed): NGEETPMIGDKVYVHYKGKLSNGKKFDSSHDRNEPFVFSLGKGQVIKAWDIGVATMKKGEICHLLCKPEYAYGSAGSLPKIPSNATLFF
Protocol: (§1) In the present invention, in vitro fluorescence polarization assays with the compounds of the general formula (I) were performed to determine the binding affinities to FKBP51 and FKBP52 or to the isolated FK506-binding domains of FKBP51 and FKBP52 ([…]). Binding to the isolated FK506-binding domains is reliably indicative of binding to the full length proteins. The affinities for the isolated FK506-binding domains and for full-length FKBP51 or FKBP52 are the same for all compounds tested so far (Kozany et al, ChemBioChem 2009, 10, 1402-1410).
(§2) Example 11: Fluorescence Polarization (FP) Assays
(§3) In-vitro fluorescence polarization assays were performed to determine the binding affinities for FKBP51 and 52 according to a literature procedure (Kozany, C.; Marz, A.; Kress, C.; Hausch, F., Fluorescent probes to characterise FK506-binding proteins. Chembiochem 2009, 10, (8), 1402-10).
(§4) For fluorescence polarization assays the fluorescent ligand 2b was dissolved in HEPES (20 mm, pH 8), Triton-X100 (0.01%), at double the concentration required for the final sample. The target protein was also diluted in this assay buffer at double the highest concentration required for the final sample. This protein stock was used for a 1:1 serial dilution.
(§5) The fluorescent ligand 2b was diluted in assay buffer to a concentration double the final concentration (20 nM 2b). The inventive compound was dissolved in DMSO to reach a 100-times concentrated stock solution. This was used for a 1:1 serial dilution in DMSO. Every sample of this serial dilution was diluted by a factor of 50 in assay buffer supplemented with ligand 2b to achieve a 2× concentrated mixture of ligand 2b and the inventive compound. To this competitive ligand double the protein concentration for 2b assay: FKBP51FK1 560 nM (2×280 nM) or FKBP52FK1 800 nM (2×400 nM) diluted in assay buffer was added.
(§6) The samples were transferred to black 384-well assay plates (No.: 3575; Corning Life Sciences). After incubation at room temperature for 30 min the fluorescence anisotropy was measured (GENios Pro, Tecan, Männedorf, Switzerland) by using an excitation filters of 485/20 nm and emission filters of 535/25 nm. The binding assays were performed in duplicates in the plate format.
(§7) The competition curves were analyzed by using SigmaPlot9. Data were fitted to a four parameter logistic curve to deduce the IC50 values. For the analysis of K1 values, data were fitted to the following equation (Z. X. Wang, FEBS Lett. 1995, 360, 111-114). A=(Amax−Amin)/[L]t×(([L]t×((2×((Klig+Kcomp+[L]t+[I]t−[R]t)^2−3×(Kcomp×([L]t−[R]t)+Klig×([I]t−[R]t)+[…]))^0.5×COS(ARCCOS((−2×(Klig+Kcomp+[L]t+[I]t−[R]t)^3+9×(Klig+Kcomp+[L]t+[I]t−[R]t)×(Kcomp×([L]t−[R]t)+Klig×([I]t−[R]t)+Klig×Kcomp)−27×(−1×Klig×Kcomp×[R]t))/(2×((((Klig+Kcomp+[L]t+[I]t−[R]t)^2−3×(Kcomp×([L]t−[R]t)+Klig×([I]t−[R]t)+Klig×Kcomp))^3)^0.5)))/3))−(Klig+Kcomp+[L]t+[I]t−[R]t)))/((3×Klig)+((2×((Klig+Kcomp+[L]t+[I]t−[R]t)^2−3×(Kcomp×([L]t−[R]t)+Klig×([I]t−[R]t)+Klig×Kcomp))^0.5×COS(ARCCOS((−2×(Klig+Kcomp+[L]t+[I]t−[R]t)^3+9×(Klig+Kcomp+[L]t+[I]t−[R]t)×(Kcomp×([L]t−[R]t)+Klig×([I]t−[R]t)+Klig×Kcomp)−27×(−1×Klig×Kcomp×[R]t))/(2×((((Klig+Kcomp+[L]t+[I]t−[R]t)^2−3×(Kcomp×([L]t−[R]t)+Klig×([I]t−[R]t)+Klig×Kcomp))^3)^0.5)))/3))−(Klig+Kcomp+[L]t+[I]t−[R]t)))+Amin
(§8) In this equation Klig and Kcomp stand for the Kd values of the used tracer or competing inhibitor, [I]t is referring to the total concentration of the titrated inhibitor.

FKBP52 = molecular target: T2, FKBP52 (Homo sapiens, UniProt Q02790); experiment: Fluorescence polarization (FP) assay, binding to the FK506-binding domain of FKBP52; conditions: FK506-binding domain of FKBP52 (FKBP52FK1), competition with fluorescent ligand 2b
T2 sequence (Q02790 50-138 limits assumed): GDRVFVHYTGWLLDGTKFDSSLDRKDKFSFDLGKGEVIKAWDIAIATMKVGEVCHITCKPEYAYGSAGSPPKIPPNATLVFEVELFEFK
Protocol: as §1, §2, §3, §4, §5, §6, §7, §8

Row | SMILES | Ki (FKBP51) [nM] | Ki (FKBP52) [nM]
1 | C=CC1CN(Cc2ccccn2)C(=O)C2CCCC1N2S(=O)(=O)c1cccc(Br)c1 (stereo in doubt) [Compound K5, (1S,5R,6R)-10-((3-bromophenyl)sulfonyl)-3-(pyridin-2-ylmethyl)-5-vinyl-3,10-diazabicyclo[4.3.1]decan-2-one] | ≤ 100 | ≤ 100
2 | C=CC1CN(Cc2ccccn2)C(=O)C2CCCC1N2S(=O)(=O)c1ccc2nc(C)sc2c1 (stereo in doubt) [Compound K6, (1S,5R,6R)-10-((2-methylbenzo[d]thiazol-6-yl)sulfonyl)-3-(pyridin-2-ylmethyl)-5-vinyl-3,10-diazabicyclo[4.3.1]decan-2-one] | ≤ 100 | ≤ 100
3 | C=CC1CN(Cc2ccccn2)C(=O)C2CCCC1N2S(=O)(=O)c1ccc2ncsc2c1 (stereo in doubt) [Compound K9, (1S,5R,6R)-10-(benzo[d]thiazol-6-ylsulfonyl)-3-(pyridin-2-ylmethyl)-5-vinyl-3,10-diazabicyclo[4.3.1]decan-2-one] | 100 to 500 | 100 to 500
4 | C=CC1CN(Cc2ccccn2)C(=O)C2CCCC1N2S(=O)(=O)c1ccc(OC)c(Cl)c1 (stereo in doubt) [Compound K10, (1S,5R,6R)-10-((3-chloro-4-methoxyphenyl)sulfonyl)-3-(pyridin-2-ylmethyl)-5-vinyl-3,10-diazabicyclo[4.3.1]decan-2-one] | 100 to 500 | 100 to 500
5 | C=CC1CN(Cc2ccccn2)C(=O)C2CCCC1N2S(=O)(=O)c1cccc(Cl)c1 (stereo in doubt) [Compound K11, (1S,5R,6R)-10-((3-chlorophenyl)sulfonyl)-3-(pyridin-2-ylmethyl)-5-vinyl-3,10-diazabicyclo[4.3.1]decan-2-one] | 100 to 500 | 100 to 500
6 | C=CC1CN(Cc2ccccn2)C(=O)C2CCCC1N2S(=O)(=O)c1ccc2c(c1)CCO2 (stereo in doubt) [Compound K12, (1S,5R,6R)-10-((2,3-dihydrobenzofuran-5-yl)sulfonyl)-3-(pyridin-2-ylmethyl)-5-vinyl-3,10-diazabicyclo[4.3.1]decan-2-one] | 500 to 1000 | 500 to 1000
7 | C=CC1CN(Cc2ccccn2)C(=O)C2CCCC1N2S(=O)(=O)c1ccccc1 (stereo in doubt) [Compound K13, (1S,5R,6R)-10-(phenylsulfonyl)-3-(pyridin-2-ylmethyl)-5-vinyl-3,10-diazabicyclo[4.3.1]decan-2-one] | 500 to 1000 | 500 to 1000
8 | C=CC1CN(Cc2ccccn2)C(=O)C2CCCC1N2S(=O)(=O)c1cccc(F)c1 (stereo in doubt) [Compound K15, (1S,5R,6R)-10-((3-fluorophenyl)sulfonyl)-3-(pyridin-2-ylmethyl)-5-vinyl-3,10-diazabicyclo[4.3.1]decan-2-one] | 100 to 500 | 100 to 500
9 | C=CC1CN(Cc2ccccn2)C(=O)C2CCCC1N2S(=O)(=O)c1cc(Br)cc(Br)c1 (stereo in doubt) [Compound K16, (1S,5R,6R)-10-((3,5-dibromophenyl)sulfonyl)-3-(pyridin-2-ylmethyl)-5-vinyl-3,10-diazabicyclo[4.3.1]decan-2-one] | ≤ 100 | ≤ 100
10 | C=CC1CN(Cc2ccccn2)C(=O)C2CCCC1N2S(=O)(=O)c1cccc(C(N)=O)c1 (stereo in doubt) [Compound K17, 3-(((1S,5R,6R)-2-oxo-3-(pyridin-2-ylmethyl)-5-vinyl-3,10-diazabicyclo[4.3.1]decan-10-yl)sulfonyl)benzamide] | 100 to 500 | 100 to 500
11 | C=CC1CN(Cc2ccccn2)C(=O)C2CCCC1N2S(=O)(=O)c1ccc(NC(C)=O)c(Br)c1 (stereo in doubt) [Compound K20, N-(2-bromo-4-(((1S,5R,6R)-2-oxo-3-(pyridin-2-ylmethyl)-5-vinyl-3,10-diazabicyclo[4.3.1]decan-10-yl)sulfonyl)phenyl)acetamide] | 100 to 500 | 100 to 500
12 | C=CC1CN(Cc2ccccn2)C(=O)C2CCCC1N2S(=O)(=O)c1ccc(NC(C)=O)c(Cl)c1 (stereo in doubt) [Compound K21, N-(2-chloro-4-(((1S,5R,6R)-2-oxo-3-(pyridin-2-ylmethyl)-5-vinyl-3,10-diazabicyclo[4.3.1]decan-10-yl)sulfonyl)phenyl)acetamide] | 100 to 500 | 100 to 500
13 | C=CC1CN(Cc2ccccn2)C(=O)C2CCCC1N2S(=O)(=O)c1cc(Br)cc(C(=O)OC)c1 (stereo in doubt) [Compound K24, methyl 3-bromo-5-(((1S,5R,6R)-2-oxo-3-(pyridin-2-ylmethyl)-5-vinyl-3,10-diazabicyclo[4.3.1]decan-10-yl)sulfonyl)benzoate] | ≤ 100 | ≤ 100
14 | C=CC1CN(Cc2ccccn2)C(=O)C2CCCC1N2S(=O)(=O)c1cccnc1 (stereo in doubt) [Compound K26, (1S,5R,6R)-3-(pyridin-2-ylmethyl)-10-(pyridin-3-ylsulfonyl)-5-vinyl-3,10-diazabicyclo[4.3.1]decan-2-one] | 100 to 500 | 100 to 500
15 | C=CC1CN(Cc2ccccn2)C(=O)C2CCCC1N2S(=O)(=O)c1ccc(-c2ncccn2)cc1 (stereo in doubt) [Compound K28, (1S,5R,6R)-3-(pyridin-2-ylmethyl)-10-((4-(pyrimidin-2-yl)phenyl)sulfonyl)-5-vinyl-3,10-diazabicyclo[4.3.1]decan-2-one] | ≤ 100 | ≤ 100
16 | C=CC1CN(Cc2ccccn2)C(=O)C2CCCC1N2S(=O)(=O)c1nc2ccccc2[nH]1 (stereo in doubt) [Compound K29, (1S,5R,6R)-10-((1H-benzo[d]imidazol-2-yl)sulfonyl)-3-(pyridin-2-ylmethyl)-5-vinyl-3,10-diazabicyclo[4.3.1]decan-2-one] | ≤ 100 | ≤ 100
17 | CCC1CN(Cc2ccccn2)C(=O)C2CCCC1N2S(=O)(=O)c1cc(Cl)cc(Cl)c1 (stereo in doubt) [Compound M1, (1S,5R,6R)-10-((3,5-dichlorophenyl)sulfonyl)-5-ethyl-3-(pyridin-2-ylmethyl)-3,10-diazabicyclo[4.3.1]decan-2-one] | ≤ 100 | ≤ 100
18 | COCC1CN(Cc2ccccn2)C(=O)C2CCCC1N2S(=O)(=O)c1cc(Cl)cc(Cl)c1 (stereo in doubt) [Compound M5, (1S,5R,6R)-10-((3,5-dichlorophenyl)sulfonyl)-5-(methoxymethyl)-3-(pyridin-2-ylmethyl)-3,10-diazabicyclo[4.3.1]decan-2-one] | ≤ 100 | ≤ 100
19 | COCC1CN(Cc2cnnn2-c2ccccc2)C(=O)C2CCCC1N2S(=O)(=O)c1cccc(F)c1 (stereo in doubt) [Compound N29, (1S,5R,6R)-10-((3-fluorophenyl)sulfonyl)-5-(methoxymethyl)-3-((1-phenyl-1H-1,2,3-triazol-5-yl)methyl)-3,10-diazabicyclo[4.3.1]decan-2-one] | 100 to 500 | 100 to 500
